According to patent US4476299A, “Cyclic polyamino containing compounds having therapeutic effect and the preparation thereof” (priority 1981, dated 1984):
“Also recorded” adds a separate entry of the source. Like-named read-outs stand apart in the source and are kept apart here.

Experiments:
[1] = Toxicity test: lethal dose in mice (Litchfield-Wilcoxon); design: species or system male 4-weeks CD-1 (ICR) mice; conditions: mouse, in vivo, 7 days, read-out: LD50 and 95% Confidence Limit
Procedure: With respect to the compounds of this invention, the lethal dose was determined as follows.
By using male 4-weeks CD-1 (ICR) mice consisting of 5 to 10 mice per group, the desired amount of each compound of this invention was suspended in 0.5% CMC solution and the resultant suspension was administered to each mouse intraperitoneally or intravenously. Observing the life or death as well as the general symptome during 7 days after the administration of the compounds, the value of LD50 for each compounds was estimated from the lethal population observed on the basis of the Litchfield-Wilcoxon method.

L-1210 cells = assay: Antineoplastic action against implanted L-1210 tumor, CDF1 mice, i.p.-i.p. (T/C %); type: in vivo; conditions: Table 7, L1210 (i.p.-i.p.)
Procedure: (§1) In this animal test, the antineoplastic action against the implanted tumor was examined, in lower animals in vivo, in repsect to the compounds according to the present invention, by using CDF1 mice.
(§2) To the peritoneal cavity of each group of mice consisting of six CDF1 mice per group, 10^6 /0.1 ml of P-388 cells or 10^5 /0.1 ml of L-1210 cells were implanted. […] While to the control groups of CDF1 mice, P-388 and L-1210 cells were implanted in the same manner and they were bred without administration of the compounds. […]

CD-1 (IRC) mice = assay: Neuropharmacological multidimensional observation (modified Arwin method and Smith method) in mice; type: in vivo, 4-weeks CD-1 (IRC) mice; conditions: i.p., 1 to 20 mg/kg, observed every 30 minutes for 180 minutes
Procedure: In this test, other pharmacological effects which may be obtained by these compounds were investigated.
Each compound of the invention was intraperitoneally administered to 4-weeks CD-1 (IRC) mice (Nippon Charles Liver K.K.) in the dose of 1 to 20 mg/kg with using mice groups consisting of three mice per group. […] The observation was carried out according to the modified Arwin method and Smith method, i.e., neuropharmacological multidimentional observation method.
Making a comparison between the symptom observed and the pattern of the pharmacological action due to the known medicines, it has been discovered that each compound of the invention has the following pharmacological effect.

B-16 melanoma = assay: Antineoplastic action against B-16 melanoma, i.p.-i.p. (T/C %); type: in vivo, mice; conditions: Table 7, B16 (i.p.-i.p.)
Excerpt: as §1
(§3) As the screening test for confirming antineoplasticity of certain compound, it is known in the art that there are two kinds of tests, one being "in vitro" test wherein carcinoma cells in propagation in a test tube are used, the other being "in vivo" test wherein lower animals implanted with carcinoma cells are used. In Japan. the "in vivo" test is usually carried out by using Ehrlich tumor, L-1210 cells, sarcoma 180 cells, Yoshida sarcoma or ascites-liver tumor as ascitic tumor and immobilized carcinoma mentioned above as fixed carcinoma. Recently, a new method for confirming the antineoplasticity has been developed, in which lymphocytic leukemia cells P-388 are used. It is known that P-388 has more strong sensitivity than L-1210. As fixed carcinoma, there may be mentioned, for example Lewis lung cancer B-16 melanoma, MM2, MOPC 104E, Colon 26, MH 134, C-1498 and the like.
(§4) The new compounds of the present invention were confirmed to be effective to the P-388 cells in the light of the screening test's results hereinbefore described.

MM2 = assay: Antineoplastic action against MM2 tumor, i.p.-i.p. (T/C %); type: in vivo, mice; conditions: Table 7, MM2 (i.p.-i.p.)
Excerpt: as §1, §3, §4

P-388 cells = assay: Antineoplastic action against implanted P-388 tumor, CDF1 mice, i.p.-i.p. (T/C %); type: in vivo; conditions: for T/C (%): Table 7, P388 (i.p.-i.p.)
Procedure: as §1, §2

[2] = Mus musculus, P388, ip, read-out: T/C %, (Treatment/Control %)

COc1ccc(CC2C(=O)NC(C)C(=O)N(C)C3Cc4ccc(cc4)Oc4cc(ccc4OC)CC(C(=O)NC(C)C(=O)NC(C)C(=O)N2C)N(C)C3=O)cc1 (stereo not shown) [Methylether of TPC-A, methylether of the compound TPC-A]
LD50 at 168 h ([1]; intravenous): 16.5 mg/kg | LD50 at 168 h ([1]; ip, intraperitoneal): 10 mg/kg | T/C (%) (L-1210 cells; 0.01 mg/kg): 105.6% | T/C (%) (L-1210 cells; 0.5 mg/kg): 118.6% | T/C (%) (L-1210 cells; 1 mg/kg): 120.7% | T/C (%) (L-1210 cells; 2 mg/kg): 129.3% | T/C (%) (L-1210 cells; 5 mg/kg): 137.3% | Pharmacological effect estimated (CD-1 (IRC) mice): emetic action; also recorded: anorexigenic action | T/C (%) (B-16 melanoma; 1 mg/kg): 135.3% | T/C (%) (B-16 melanoma; 2 mg/kg): 139.1% | T/C (%) (B-16 melanoma; 4 mg/kg): 143.0% | T/C (%) (B-16 melanoma; printed "(p. 25 mg/kg)"): 133.8% | T/C (%) (MM2; 0.2 mg/kg): 103.1% | T/C (%) (MM2; 1 mg/kg): 103.1% | T/C (%) (MM2; 2 mg/kg): 118.4% | T/C (%) (MM2; 5 mg/kg): 90.8% | response vs control in vivo at 0.01 mg/kg (P-388 cells; [2]): 130% | response vs control in vivo at 0.5 mg/kg (P-388 cells; [2]): 157% | response vs control in vivo at 2 mg/kg (P-388 cells; [2]): 164% | response vs control in vivo at 4 mg/kg (P-388 cells; [2]): 174% | T/C (%) (P-388 cells; 0.01 mg/kg): 130.1% | T/C (%) (P-388 cells; 0.5 mg/kg): 156.7% | T/C (%) (P-388 cells; 1 mg/kg): 159.9% | T/C (%) (P-388 cells; 2 mg/kg): 164.2% | T/C (%) (P-388 cells; 4 mg/kg): 173.6%
